Reference: PubChem BioAssay (NCI)
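How tested: cells in 96-well plates exposed to compound for 48 hours at five concentrations. The concentration for 50% growth inhibition is given as GI50. The concentration for full growth arrest is given as TGI.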

Columns and labels:
Assay in all cases: NCI anticancer screen, dose series, 48 h
A549 NSCLC = test system: A549 NSCLC
U251 CNS = test system: U251 CNS
SN12C renal = test system: SN12C renal
DU-145 prostate = test system: DU-145 prostate
MCF7 breast = test system: MCF7 breast
MOLT-4 leukemia = test system: MOLT-4 leukemia
SNB-19 CNS = test system: SNB-19 CNS
HCT-15 colon = test system: HCT-15 colon
M14 melanoma = test system: M14 melanoma
SK-OV-3 ovarian = test system: SK-OV-3 ovarian

Compound	GI50 (A549 NSCLC)	TGI (A549 NSCLC)	GI50 (U251 CNS)	TGI (U251 CNS)	GI50 (SN12C renal)	TGI (SN12C renal)	GI50 (DU-145 prostate)	TGI (DU-145 prostate)	GI50 (MCF7 breast)	TGI (MCF7 breast)	GI50 (MOLT-4 leukemia)	TGI (MOLT-4 leukemia)	GI50 (SNB-19 CNS)	TGI (SNB-19 CNS)	GI50 (HCT-15 colon)	TGI (HCT-15 colon)	GI50 (M14 melanoma)	TGI (M14 melanoma)	GI50 (SK-OV-3 ovarian)	TGI (SK-OV-3 ovarian)
S=c1snc2n1CCN2	> 100 µM	> 100 µM	> 100 µM	> 100 µM	10.6 µM	86.8 µM	91.3 µM	> 100 µM	39.3 µM	> 100 µM	32.3 µM	> 100 µM	> 100 µM	> 100 µM	> 100 µM	> 100 µM	> 100 µM	> 100 µM	–	–
O=C(/C=C/c1ccccc1)C(Br)C(Br)c1ccccc1 (centres undefined)	2.79 µM	9.3 µM	1.68 µM	3.81 µM	2 µM	4.65 µM	1.64 µM	3.24 µM	–	–	0.602 µM	3 µM	4.72 µM	17.7 µM	–	–	2.02 µM	4.9 µM	3.66 µM	13.3 µM
COc1ccc(OC)c(NC(=O)CCC/C(CC(=O)c2ccc(O)c(OC)c2)=N\Nc2nnc(C)n2N)c1	–	> 100 µM	–	> 100 µM	–	> 100 µM	–	–	–	–	–	> 100 µM	–	> 100 µM	–	> 100 µM	–	> 100 µM	–	> 100 µM
COC12CCC(=O)C=C1c1ccccc1N2C(C)=O (centres undefined)	–	> 100 µM	–	> 100 µM	–	> 100 µM	–	–	–	–	–	> 100 µM	–	> 100 µM	–	> 100 µM	–	–	–	> 100 µM
CC1=CC(=O)CC2(C)CC[C@@H]3C[C@]12OC3(C)C (some centres undefined)	–	> 100 µM	–	> 100 µM	–	> 100 µM	–	–	–	–	–	> 100 µM	–	> 100 µM	–	> 100 µM	–	> 100 µM	–	> 100 µM
CC1=Nc2c(ccc3c2C(=O)c2ccccc2C3=O)NC(c2cccc3c2CCC3)C1 (centres undefined)	–	> 100 µM	–	> 100 µM	–	> 100 µM	–	–	–	–	–	> 100 µM	–	> 100 µM	–	> 100 µM	–	> 100 µM	–	> 100 µM
CCOC(=O)c1cc2cc3c4c(c2oc1=O)CCCN4CCC3	–	> 100 µM	–	> 100 µM	–	> 100 µM	–	> 100 µM	–	56.3 µM	–	62.9 µM	–	> 100 µM	–	> 100 µM	–	> 100 µM	–	–
O=C(O)c1ccc(NCn2nc(-c3ccccc3O)oc2=S)cc1	42.3 µM	> 100 µM	43.1 µM	> 100 µM	50.5 µM	> 100 µM	–	–	49.1 µM	> 100 µM	4.69 µM	26.8 µM	> 100 µM	> 100 µM	24.9 µM	57.5 µM	53.5 µM	> 100 µM	–	–
CC(C)(C)c1cc(C(O)(C(F)(F)F)C(F)(F)F)c2c(c1)C(C(F)(F)F)(C(F)(F)F)OC(C)(C(C)(C)C)N2 (centres undefined)	–	33.4 µM	–	10.9 µM	–	16.8 µM	–	–	–	–	–	7.96 µM	–	> 100 µM	–	14.5 µM	–	13.6 µM	–	6.14 µM
COc1ccc2cc(/C=C/C(=O)c3ccc(Cl)cc3Cl)ccc2c1	26 µM	> 100 µM	27.9 µM	> 100 µM	20.3 µM	50.9 µM	32.6 µM	> 100 µM	4.83 µM	43.4 µM	11.3 µM	35.5 µM	–	–	31 µM	> 100 µM	30.5 µM	> 100 µM	–	–
N#Cc1ccccc1C(Cl)(Cl)c1cnccn1	–	> 100 µM	–	> 100 µM	–	> 100 µM	–	–	–	–	–	69.7 µM	–	> 100 µM	–	–	–	–	–	> 100 µM
CCCCCCCCOC(=O)CC[C@@H](C)[C@H]1CC[C@H]2[C@@H]3[C@H](OC(=O)CCN)C[C@@H]4C[C@H](OC(=O)CCN)CC[C@]4(C)[C@H]3C[C@H](OC(=O)CCN)[C@]12C	10.9 µM	27.1 µM	1.95 µM	3.61 µM	6.62 µM	22.2 µM	3.4 µM	9.7 µM	–	–	–	–	3.48 µM	13.8 µM	16.4 µM	38.9 µM	4.61 µM	22.9 µM	10.5 µM	27 µM
C/C=C(/I)CBr	–	66.7 µM	–	–	–	34.1 µM	–	–	–	–	–	55.9 µM	–	63.5 µM	–	51.2 µM	–	28.7 µM	–	64.7 µM
CCOC(=O)C(Cc1c[nH]c2c(N(CCO)CCO)cccc12)(NC(C)=O)C(=O)OCC	> 1000 µM	> 1000 µM	183 µM	420 µM	141 µM	290 µM	499 µM	> 1000 µM	141 µM	305 µM	–	–	> 1000 µM	> 1000 µM	182 µM	> 1000 µM	> 1000 µM	> 1000 µM	> 1000 µM	> 1000 µM
Cc1ccc(NC(=O)CCc2nc(N)nc(N)c2-c2ccccc2)cc1C	–	> 100 µM	–	> 100 µM	–	> 100 µM	–	–	–	–	–	> 100 µM	–	> 100 µM	–	> 100 µM	–	> 100 µM	–	> 100 µM
O=c1/c(=C/c2ccccc2[N+](=O)[O-])sc2nc3ccccc3n12	–	> 46.4 µM	–	41.9 µM	–	> 46.4 µM	–	–	–	–	–	> 46.4 µM	–	> 77.9 µM	–	31.6 µM	–	> 46.4 µM	–	> 31.6 µM
CC1=C[C@H]2c3c([nH]c4ccccc34)C(c3c[nH]c4ccccc34)[C@H]2CC1 (some centres undefined)	–	26.4 µM	–	16.3 µM	–	12.9 µM	–	–	–	–	–	5.89 µM	–	–	–	18.8 µM	–	19.2 µM	–	26.6 µM
COC(=O)/C=C(C)/C=C/C1OC(C)OCC1O (centres undefined)	–	> 100 µM	–	> 100 µM	–	> 100 µM	–	–	–	–	–	> 100 µM	–	> 100 µM	–	> 100 µM	–	> 100 µM	–	> 100 µM
CCOC(=O)C1=C(Nc2ccc(Cl)cc2Cl)OCC1=O	–	> 100 µM	–	> 100 µM	–	> 100 µM	–	–	–	–	–	> 100 µM	–	> 100 µM	–	> 100 µM	–	> 100 µM	–	> 100 µM
CN(C)CCNc1ccc(CO)c2sc3ccc(O)cc3c(=O)c12	–	6.77 µM	–	7.46 µM	–	15.4 µM	–	4.05 µM	–	–	–	> 21.7 µM	–	11.9 µM	–	14.2 µM	–	16.5 µM	–	8.29 µM
